Laboratory results published in the NIST ThermoML archive (doi:10.1016/j.fluid.2014.08.018).

Details: Liquid, Vibrating tube method

CC[n+]1ccccc1C.O=S(=O)([N-]S(=O)(=O)C(F)(F)F)C(F)(F)F
Details | mass density [kg/m3]
283.15 K, 100 kPa | 1520.3
283.15 K, 2500 kPa | 1522.2
283.15 K, 5000 kPa | 1523.8
283.15 K, 7500 kPa | 1525.4
283.15 K, 10000 kPa | 1527
283.15 K, 15000 kPa | 1530.1
283.15 K, 20000 kPa | 1533.1
283.15 K, 25000 kPa | 1536
283.15 K, 30000 kPa | 1538.8
283.15 K, 35000 kPa | 1541.6
283.15 K, 45000 kPa | 1546.9
283.15 K, 55000 kPa | 1551.8
283.15 K, 65000 kPa | 1556.4
288.15 K, 100 kPa | 1515.4
288.15 K, 2500 kPa | 1517.2
288.15 K, 5000 kPa | 1518.9
288.15 K, 7500 kPa | 1520.6
288.15 K, 10000 kPa | 1522.2
288.15 K, 15000 kPa | 1525.3
288.15 K, 20000 kPa | 1528.3
288.15 K, 25000 kPa | 1531.3
288.15 K, 30000 kPa | 1534.2
288.15 K, 35000 kPa | 1536.9
288.15 K, 45000 kPa | 1542.2
288.15 K, 55000 kPa | 1547.3
288.15 K, 65000 kPa | 1552
293.15 K, 100 kPa | 1510.5
293.15 K, 2500 kPa | 1512.4
293.15 K, 5000 kPa | 1514.1
293.15 K, 7500 kPa | 1515.7
293.15 K, 10000 kPa | 1517.4
293.15 K, 15000 kPa | 1520.6
293.15 K, 20000 kPa | 1523.6
293.15 K, 25000 kPa | 1526.6
293.15 K, 30000 kPa | 1529.5
293.15 K, 35000 kPa | 1532.4
293.15 K, 45000 kPa | 1537.8
293.15 K, 55000 kPa | 1542.9
293.15 K, 65000 kPa | 1547.7
298.15 K, 100 kPa | 1505.6
298.15 K, 2500 kPa | 1507.5
298.15 K, 5000 kPa | 1509.2
298.15 K, 7500 kPa | 1510.9
298.15 K, 10000 kPa | 1512.5
298.15 K, 15000 kPa | 1515.8
298.15 K, 20000 kPa | 1519
298.15 K, 25000 kPa | 1522
298.15 K, 30000 kPa | 1525
298.15 K, 35000 kPa | 1527.8
298.15 K, 45000 kPa | 1533.3
298.15 K, 55000 kPa | 1538.5
298.15 K, 65000 kPa | 1543.4
303.15 K, 100 kPa | 1500.8
303.15 K, 2500 kPa | 1502.7
303.15 K, 5000 kPa | 1504.5
303.15 K, 7500 kPa | 1506.2
303.15 K, 10000 kPa | 1507.9
303.15 K, 15000 kPa | 1511.2
303.15 K, 20000 kPa | 1514.3
303.15 K, 25000 kPa | 1517.5
303.15 K, 30000 kPa | 1520.5
303.15 K, 35000 kPa | 1523.4
303.15 K, 45000 kPa | 1528.9
303.15 K, 55000 kPa | 1534.2
303.15 K, 65000 kPa | 1539.2
308.15 K, 100 kPa | 1495.9
308.15 K, 2500 kPa | 1497.9
308.15 K, 5000 kPa | 1499.7
308.15 K, 7500 kPa | 1501.4
308.15 K, 10000 kPa | 1503.1
308.15 K, 15000 kPa | 1506.5
308.15 K, 20000 kPa | 1509.7
308.15 K, 25000 kPa | 1512.9
308.15 K, 30000 kPa | 1515.9
308.15 K, 35000 kPa | 1518.9
308.15 K, 45000 kPa | 1524.5
308.15 K, 55000 kPa | 1529.9
308.15 K, 65000 kPa | 1534.9
313.15 K, 100 kPa | 1491.1
313.15 K, 2500 kPa | 1493.2
313.15 K, 5000 kPa | 1495
313.15 K, 7500 kPa | 1496.8
313.15 K, 10000 kPa | 1498.5
313.15 K, 15000 kPa | 1502
313.15 K, 20000 kPa | 1505.2
313.15 K, 25000 kPa | 1508.4
313.15 K, 30000 kPa | 1511.5
313.15 K, 35000 kPa | 1514.5
313.15 K, 45000 kPa | 1520.3
313.15 K, 55000 kPa | 1525.7
313.15 K, 65000 kPa | 1530.8
318.15 K, 100 kPa | 1486.3
318.15 K, 2500 kPa | 1488.4
318.15 K, 5000 kPa | 1490.3
318.15 K, 7500 kPa | 1492.1
318.15 K, 10000 kPa | 1493.8
318.15 K, 15000 kPa | 1497.3
318.15 K, 20000 kPa | 1500.6
318.15 K, 25000 kPa | 1503.9
318.15 K, 30000 kPa | 1507
318.15 K, 35000 kPa | 1510.1
318.15 K, 45000 kPa | 1515.9
318.15 K, 55000 kPa | 1521.4
318.15 K, 65000 kPa | 1526.6
323.15 K, 100 kPa | 1481.5
323.15 K, 2500 kPa | 1483.7
323.15 K, 5000 kPa | 1485.6
323.15 K, 7500 kPa | 1487.4
323.15 K, 10000 kPa | 1489.2
323.15 K, 15000 kPa | 1492.7
323.15 K, 20000 kPa | 1496.2
323.15 K, 25000 kPa | 1499.5
323.15 K, 30000 kPa | 1502.6
323.15 K, 35000 kPa | 1505.7
323.15 K, 45000 kPa | 1511.7
323.15 K, 55000 kPa | 1517.3
323.15 K, 65000 kPa | 1522.5
328.15 K, 100 kPa | 1476.8
328.15 K, 2500 kPa | 1478.9
328.15 K, 5000 kPa | 1480.8
328.15 K, 7500 kPa | 1482.7
328.15 K, 10000 kPa | 1484.5
328.15 K, 15000 kPa | 1488.1
328.15 K, 20000 kPa | 1491.6
328.15 K, 25000 kPa | 1494.9
328.15 K, 30000 kPa | 1498.2
328.15 K, 35000 kPa | 1501.4
328.15 K, 45000 kPa | 1507.4
328.15 K, 55000 kPa | 1513
328.15 K, 65000 kPa | 1518.4
333.15 K, 100 kPa | 1472
333.15 K, 2500 kPa | 1474.3
333.15 K, 5000 kPa | 1476.2
333.15 K, 7500 kPa | 1478.1
333.15 K, 10000 kPa | 1480
333.15 K, 15000 kPa | 1483.6
333.15 K, 20000 kPa | 1487.2
333.15 K, 25000 kPa | 1490.5
333.15 K, 30000 kPa | 1493.9
333.15 K, 35000 kPa | 1497
333.15 K, 45000 kPa | 1503.2
333.15 K, 55000 kPa | 1509
333.15 K, 65000 kPa | 1514.3
